Test system: gut microbiota
Assay: Gut microbiome analysis (16S rRNA sequencing of fecal samples) in STAM model of NASH
Format: in vivo, C57BL/6J mice
Details: pre (baseline)
Excerpt: The study is reported in accordance with Animal Research: Reporting of In Vivo Experiments (ARRIVE) guidelines. C57BL/6J mice were obtained from Japan SLC, Inc. (Japan). All animals used in this study were cared for under the following guidelines: Act on Welfare and Management of Animals (Ministry of the Environment, Japan, Act No. 105 of Oct. 1, 1973), standards relating to the care and management of laboratory animals and relief of pain (Notice No. 88 of the Ministry of the Environment, Japan, Apr. 28, 2006) and the guidelines for proper conduct of animal experiments (Science Council of Japan, Jun. 1, 2006). Protocol approvals were obtained from SMC Laboratories, Japan's IACUC (Study reference no: […] Mice were maintained in a specific pathogen-free (SPF) facility under controlled conditions of temperature (23±3° C.), humidity (50±20%), lighting (12-hour artificial light and dark cycles; light from 8:00 to 20:00) and air exchange. The STAM model of NASH was induced as previously described [D10]. Mice were given a single subcutaneous injection of 200 μg streptozotocin (STZ, Sigma-Aldrich, USA) solution 2 days after birth and fed with a high-fat diet (HFD, 57 kcal % fat, Cat #HFD32, CLEA Japan, Inc., Japan) from 4-9 weeks of age. All mice develop liver steatosis and diabetes and at […] mice had established steatohepatitis, histologically. Studygroups: There were five study groups, described below. Eight mice were included in each study group. Eight NASH mice were orally administered vehicle supplemented with AFO-202 Beta Glucan at a dose of 1 mg/kg in a volume of 5 mL/kg once daily from 6 to 9 weeks of age. Eight NASH mice were orally administered vehicle supplemented with Telmisartan at a dose of 10 mg/kg once daily from 6 to 9 weeks of age. Frequency: Fecal samples were collected at the 6 weeks of age (before administration) and 9 weeks of age (before sacrifice). Procedure: At 6 weeks of age, fecal samples were collected from each mouse by clean catch method. […] A sterile petri dish was placed on the bench. Gently massage the abdomen, position the bottom of mouse over a fresh petri dish, and collect 1-2 fecal pellets. At sacrifice, fecal samples were aseptically collected from cecum. The tubes with feces were placed on ice immediately. These tubes were snap frozen in liquid nitrogen and stored at -80° C. for shipping. In this analysis, the 16S rRNA sequence data acquired by the next-generation sequencer from the fecal […] was used to perform community analysis using the QIIME2 program for microbial community analysis. The raw read data in FASTQ format output from the next-generation sequencer was trimmed to remove adapter sequences and low QV regions that may be included in the data. Cutadapt was used to remove adapter sequences from DNA sequencing reads. Trimmomatic was used as read trimming tool for Illumina NGS data. The adapter sequence was trimmed using the adapter trimming program “cutadapt” if the Trimming of the region at the end of the read sequence overlapped the corresponding sequence by at least one base (mismatch tolerance: 20%). When reads containing N were present in at least one of Read1 and Read2, both Read1 and Read2 were removed. Trimming of low QV regions was performed on the read data after processing using the QV trimming program “Trimmomatic” under the following conditions. The window of 20 bases is slid from the 5' side, and the area where the average QV is less than 20 is trimmed. After trimming, only the reads with more than 50 bases remaining in both Read1 and Read2 were taken as output. The microbial community analysis based on 16S rRNA sequence was performed on the sequence data trimmed in the previous section using the microbial community analysis program “QIIME2”. The annotation program “sklearn” included in QIIME2 is used to annotate the ASV (OTU) sequences. […]

## CCCc1nc2c(C)cc(-c3nc4ccccc4n3C)cc2n1Cc1ccc(-c2ccccc2C(=O)O)cc1 [Telmisartan]
Line r302
  Abundance: S24-7, —, —: 47
Line r303
  Abundance: —, —, —: 0
Line r304
  Abundance: Ruminococcaceae, Oscillospira, —: 35
Line r305
  Abundance: Bacteroidaceae, Bacteroides, acidifaciens: 0
Line r306
  Abundance: Bacteroidaceae, Bacteroides, acidifaciens: 0
Line r307
  Abundance: Lachnospiraceae, Dorea, —: 25
Line r308
  Abundance: Ruminococcaceae, Other, Other: 10
Line r309
  Abundance: Lachnospiraceae, —, —: 7
Line r310
  Abundance: Lachnospiraceae, —, —: 20
Line r311
  Abundance: S24-7, —, —: 1
Line r312
  Abundance: Lachnospiraceae, Other, Other: 14
Line r313
  Abundance: —, —, —: 0
Line r314
  Abundance: Ruminococcaceae, Oscillospira, —: 0
Line r315
  Abundance: Ruminococcaceae, Oscillospira, —: 42
Line r316
  Abundance: Lachnospiraceae, —, —: 14
Line r317
  Abundance: Erysipelotrichaceae, —, —: 0
Line r319
  Abundance: Lachnospiraceae, —, —: 13
Line r320
  Abundance: Ruminococcaceae, Oscillospira, —: 0
Line r321
  Abundance: Lachnospiraceae, —, —: 22
Line r322
  Abundance: Other, Other, Other: 49
Line r323
  Abundance: F16, —, —: 0
Line r324
  Abundance: Christensenellaceae, —, —: 19
Line r325
  Abundance: Lachnospiraceae, Other, Other: 0
Line r326
  Abundance: Ruminococcaceae, Oscillospira, —: 12
Line r327
  Abundance: —, —, —: 80
Line r328
  Abundance: Ruminococcaceae, Other, Other: 14
Line r329
  Abundance: —, —, —: 0
Line r330
  Abundance: Lachnospiraceae, Other, Other: 0
Line r331
  Abundance: Other, Other, Other: 0
Line r332
  Abundance: Enterococcaceae, Vagococcus, —: 0
Line r333
  Abundance: Ruminococcaceae, Ruminococcus, —: 23
Line r334
  Abundance: Erysipelotrichaceae, Coprabacillus, —: 11
Line r335
  Abundance: Other, Other, Other: 0
Line r336
  Abundance: Ruminococcaceae, Oscillospira, —: 11
Line r337
  Abundance: Ruminococcaceae, Oscillospira, —: 0
Line r338
  Abundance: —, —, —: 0
Line r339
  Abundance: Lachnospiraceae, —, —: 0
Line r340
  Abundance: Ruminococcaceae, Oscillospira, —: 0
Line r341
  Abundance: Lachnospiraceae, Coprococcus, —: 0
Line r342
  Abundance: Ruminococcaceae, Other, Other: 8
Line r343
  Abundance: —, —, —: 0
Line r344
  Abundance: Erysipelotrichaceae, —, —: 6
Line r345
  Abundance: Rikenellaceae, —, —: 0
Line r346
  Abundance: —, —, —: 0
Line r347
  Abundance: —, —, —: 0
Line r348
  Abundance: —, —, —: 8
Line r349
  Abundance: Lachnospiraceae, —, —: 0
Line r350
  Abundance: —, —, —: 15
Line r351
  Abundance: Lachnospiraceae, Clostridium, Other: 0
Line r352
  Abundance: Erysipelotrichaceae, —, —: 9
Line r353
  Abundance: Streptococcaceae, Streptococcus, minor: 9
Line r354
  Abundance: Ruminococcaceae, Oscillospira, —: 0
Line r355
  Abundance: —, —, —: 27
Line r356
  Abundance: Lachnospiraceae, Other, Other: 7
Line r357
  Abundance: Other, Other, Other: 36
Line r358
  Abundance: —, —, —: 0
Line r359
  Abundance: —, —, —: 0
Line r360
  Abundance: —, —, —: 0
Line r362
  Abundance: Lachnospiraceae, —, —: 7
Line r363
  Abundance: Streptococcaceae, Streptococcus, —: 0
Line r365
  Abundance: S24-7, —, —: 0
Line r367
  Abundance: Other, Other, Other: 0
Line r368
  Abundance: [Mogibacteriaceae], —, —: 0
Line r369
  Abundance: Enterobacteriaceae, Enterobacter, Other: 0
Line r371
  Abundance: Erysipelotrichaceae, —, —: 0
Line r372
  Abundance: Aerococcaceae, Aerococcus, —: 0
Line r373
  Abundance: Ruminococcaceae, Oscillospira, —: 0
Line r374
  Abundance: Ruminococcaceae, Oscillospira, —: 0
Line r375
  Abundance: Other, Other, Other: 5
Line r377
  Abundance: Lachnospiraceae, Coprococcus, —: 0
Line r378
  Abundance: Other, Other, Other: 35
Table row r380
  Abundance: Family Lachnospiraceae, Genus Other, Species Other: 11
Table row r381
  Abundance: Family Ruminococcaceae, Genus Oscillospira, Species —: 0
Table row r382
  Abundance: Family S24-7, Genus —, Species —: 0
Table row r383
  Abundance: Family Ruminococcaceae, Genus Ruminococcus, Species —: 0
Table row r384
  Abundance: Family Ruminococcaceae, Genus Oscillospira, Species —: 31
Table row r389
  Abundance: Family Ruminococcaceae, Genus Ruminococcus, Species —: 0
Table row r390
  Abundance: Family Lachnospiraceae, Genus —, Species —: 0
Table row r391
  Abundance: Family Ruminococcaceae, Genus Oscillospira, Species —: 0
Table row r394
  Abundance: Family Corynebacteriaceae, Genus Corynebacterium, Species stationis: 0
Table row r395
  Abundance: Family Ruminococcaceae, Genus Other, Species Other: 5
Table row r396
  Abundance: Family S24-7, Genus —, Species —: 0
Table row r397
  Abundance: Family Ruminococcaceae, Genus Oscillospira, Species —: 0
Table row r398
  Abundance: Family Ruminococcaceae, Genus Oscillospira, Species —: 0
Table row r399
  Abundance: Family Ruminococcaceae, Genus Ruminococcus, Species —: 0
Table row r400
  Abundance: Family [Mogibacteriaceae], Genus —, Species —: 0
Table row r401
  Abundance: Family Erysipelotrichaceae, Genus Coprobacillus, Species —: 0
Table row r402
  Abundance: Family Erysipelotrichaceae, Genus Clostridium, Species cocleatum: 0
Table row r403
  Abundance: Family S24-7, Genus —, Species —: 0
Table row r404
  Abundance: Family Coriobacteriaceae, Genus —, Species —: 0
Table row r405
  Abundance: Family Coriobacteriaceae, Genus Adlercreutzia, Species —: 0
Table row r407
  Abundance: Family Enterococcaceae, Genus Vagococcus, Species —: 0
Table row r409
  Abundance: Family [Mogibacteriaceae], Genus —, Species —: 0
Table row r413
  Abundance: Family S24-7, Genus —, Species —: 0
Table row r414
  Abundance: Family Ruminococcaceae, Genus Oscillospira, Species —: 0
Table row r415
  Abundance: Family Planococcaceae, Genus Sporosarcina, Species —: 0
Table row r417
  Abundance: Family Erysipelotrichaceae, Genus Other, Species Other: 7
Table row r419
  Abundance: Family Ruminococcaceae, Genus Ruminococcus, Species —: 0
Table row r423
  Abundance: Family Coriobacteriaceae, Genus Adlercreutzia, Species —: 0
Table row r424
  Abundance: Family Other, Genus Other, Species Other: 0
Table row r425
  Abundance: Family Ruminococcaceae, Genus Other, Species Other: 0
Table row r426
  Abundance: Family Erysipelotrichaceae, Genus —, Species —: 0
Table row r427
  Abundance: Family Deferribacteraceae, Genus Mucispirillum, Species schaedleri: 0
Table row r428
  Abundance: Family Methylobacteriaceae, Genus Methylobacterium, Species Other: 0

Source: US20240374631A1, “A COMPOSITION FOR IMPROVING GUT MICROBIOTA, BEHAVIOURAL PATTERN, ALPHA-SYNUCLEIN LEVELS, SLEEP PATTERN AND/OR SERUM MELATONIN” (GN Corporation Co Ltd, priority 2021, published 2024)
